Experiments:
Experiment in all cases: relative viability (nuclei count vs DMSO), 5 days (fraction); higher = more cells survive
[1] = compound: C1COCCN1C2=NC(=NC3=C2OC4=C3C=CC=N4)C5=CC(=CC=C5)NC(=O)C6=CN=C(C=C6)N + Cc1cc(Nc2cc(N3CCN(C)CC3)nc(Sc3ccc(NC(=O)C4CC4)cc3)n2)n[nH]1 [Tozasertib] (partner 0.1 µM)
Method in brief: (§1)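 Medians of duplicate plates are given as relative viability. That measure is the nuclei count in treated wells divided by the count in vehicle wells. Counts were taken on 4× images of lung cancer cell lines in 1536-well plates, 5 days after pin-tool dosing the day after seeding with one drug alone or a fixed anchor-drug dose plus five library-drug doses (not always all listed) in √10 steps.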

[2] = compound: C1COCCN1C2=NC(=NC3=C2OC4=C3C=CC=N4)C5=CC(=CC=C5)NC(=O)C6=CN=C(C=C6)N + COc1cc2c(Oc3ccc(NC(=O)C4(C(=O)Nc5ccc(F)cc5)CC4)cc3F)ccnc2cc1OCCCN1CCOCC1 [Foretinib] (partner 0.25 µM)
Method in brief: as §1

[3] = compound: C1COCCN1C2=NC(=NC3=C2OC4=C3C=CC=N4)C5=CC(=CC=C5)NC(=O)C6=CN=C(C=C6)N + CC(=O)Nc1cccc(-n2c(=O)n(C3CC3)c(=O)c3c(Nc4ccc(I)cc4F)n(C)c(=O)c(C)c32)c1 [Trametinib] (partner 0.02 µM)
Method in brief: as §1

[4] = compound: Nc1ccccc1NC(=O)c1ccc(CNC(=O)OCc2cccnc2)cc1 [Entinostat] + COc1cc2c(Oc3ccc(NC(=O)C4(C(=O)Nc5ccc(F)cc5)CC4)cc3F)ccnc2cc1OCCCN1CCOCC1 [Foretinib] (partner 0.25 µM)
Method in brief: as §1

Cell Line | relative viability ([1]; first compound 0.02 µM) | relative viability ([1]; first compound 0.06325 µM) | relative viability ([1]; first compound 0.2 µM) | relative viability ([1]; first compound 0.6325 µM) | relative viability ([1]; first compound 2 µM) | relative viability ([2]; first compound 0.02 µM) | relative viability ([2]; first compound 0.06325 µM) | relative viability ([2]; first compound 0.2 µM) | relative viability ([2]; first compound 0.6325 µM) | relative viability ([2]; first compound 2 µM) | relative viability ([3]; first compound 0.02 µM) | relative viability ([3]; first compound 0.06325 µM) | relative viability ([3]; first compound 0.2 µM) | relative viability ([3]; first compound 0.6325 µM) | relative viability ([3]; first compound 2 µM) | relative viability ([4]; first compound 0.02 µM) | relative viability ([4]; first compound 0.06325 µM) | relative viability ([4]; first compound 0.2 µM) | relative viability ([4]; first compound 0.6325 µM) | relative viability ([4]; first compound 2 µM)
NCI-H2126 | 0.868 | 0.895 | 0.767 | 0.702 | 0.518 | 1.19 | 1.24 | 1.1 | 0.977 | 1.04 | 0.592 | 0.569 | 0.618 | 0.547 | 0.45 | 1.12 | 1.06 | 1.05 | 0.572 | 0.415
LXF-289 | 0.177 | 0.181 | 0.156 | 0.145 | 0.119 | 0.994 | 1 | 0.985 | 0.952 | 0.747 | 0.676 | 0.769 | 0.671 | 0.67 | 0.462 | 1.01 | 0.916 | 0.88 | 0.825 | 0.59
BEN | 0.593 | 0.444 | 0.488 | 0.513 | 0.386 | 0.681 | 0.609 | 0.594 | 0.451 | 0.72 | 1 | 0.947 | 1.11 | 0.888 | 0.939 | 0.782 | 0.756 | 0.465 | 0.498 | 0.283
SW 1573 | 0.207 | 0.159 | 0.175 | 0.188 | 0.152 | 0.931 | 1.07 | 1.09 | 0.877 | 0.688 | 0.744 | 0.573 | 0.476 | 0.534 | 0.476 | 0.966 | 0.927 | 0.877 | 0.917 | 0.7
NCI-H1993 | 0.551 | 0.569 | 0.524 | 0.567 | 0.538 | 0.879 | 0.837 | 0.732 | 0.723 | 0.665 | 0.521 | 0.583 | 0.571 | 0.421 | 0.526 | 0.891 | 0.686 | 0.664 | 0.618 | 0.637
SK-LU-1 | 0.348 | 0.287 | 0.266 | 0.284 | 0.314 | 0.826 | 0.916 | 0.83 | 0.725 | 0.557 | 0.486 | 0.502 | 0.5 | 0.42 | 0.411 | 0.865 | 0.847 | 0.836 | 0.589 | 0.447
NCI-H460 | 0.465 | 0.509 | 0.209 | 0.392 | 0.0489 | 1.11 | 1.23 | 1.12 | 1.08 | 0.545 | 0.166 | 0.263 | 0.142 | 0.133 | 0.0197 | 0.967 | 0.954 | 0.699 | 0.193 | 0.0625
LCLC-97TM1 | 0.266 | 0.214 | 0.155 | 0.405 | 0.261 | 0.974 | 0.964 | 0.931 | 1.04 | 0.825 | 0.187 | 0.205 | 0.204 | 0.169 | 0.134 | 1.05 | 0.934 | 1 | 0.995 | 0.844
HCC-78 | 0.394 | 0.427 | 0.432 | 0.367 | 0.24 | 0.466 | 0.553 | 0.587 | 0.531 | 0.425 | 0.926 | 0.836 | 0.899 | 0.756 | 0.566 | 0.559 | 0.479 | 0.39 | 0.297 | 0.264
NCI-H1975 | 0.893 | 0.699 | 0.315 | 0.225 | 0.215 | 1.01 | 0.857 | 0.896 | 0.886 | 0.498 | 0.315 | 0.362 | 0.307 | 0.348 | 0.31 | 0.904 | 0.78 | 0.64 | 0.326 | 0.224

Source: the supplement of paper PMC10307832
